Data reported in US20150011566A1, “N-PHENYLPIPERAZINE DERIVATIVES THAT ARE ANTAGONISTS OF A1A, A1D ADRENOCEPTORS AND 5-HT1A RECEPTORS FOR THE TREATMENT OF BENIGN PROSTATE HYPERPLASIA, PHARMACEUTICAL COMPOSITIONS CONTAINING THE SAME” (UNIVERSIDADE FEDERAL DO RIO DE JANEIRO-UFRJ, priority 2012, published 2015).
Where two headings read alike, the source gives them in different places.

Tests used:
[1] = target: T1, α1D adrenoceptors (Rattus norvegicus, UniProt P23944); assay: Phenylephrine-induced contraction inhibition in rat aorta (isometric contraction, Schild KB); format: cell-based; set-up: CR: concentration ratio CR = EC′50/EC50 (with/without antagonist); details: for log KB ± EPM (M) / Kb: Schild equation; for CR ± EPM: ratio of EC50 in presence and absence of test substance
T1 construct: the rat thoracic aorta corresponds to a tissue expressing mainly α1D-adrenoceptors; from tissue; host or cells: rat thoracic aorta rings
T1 sequence (P23944 1-561): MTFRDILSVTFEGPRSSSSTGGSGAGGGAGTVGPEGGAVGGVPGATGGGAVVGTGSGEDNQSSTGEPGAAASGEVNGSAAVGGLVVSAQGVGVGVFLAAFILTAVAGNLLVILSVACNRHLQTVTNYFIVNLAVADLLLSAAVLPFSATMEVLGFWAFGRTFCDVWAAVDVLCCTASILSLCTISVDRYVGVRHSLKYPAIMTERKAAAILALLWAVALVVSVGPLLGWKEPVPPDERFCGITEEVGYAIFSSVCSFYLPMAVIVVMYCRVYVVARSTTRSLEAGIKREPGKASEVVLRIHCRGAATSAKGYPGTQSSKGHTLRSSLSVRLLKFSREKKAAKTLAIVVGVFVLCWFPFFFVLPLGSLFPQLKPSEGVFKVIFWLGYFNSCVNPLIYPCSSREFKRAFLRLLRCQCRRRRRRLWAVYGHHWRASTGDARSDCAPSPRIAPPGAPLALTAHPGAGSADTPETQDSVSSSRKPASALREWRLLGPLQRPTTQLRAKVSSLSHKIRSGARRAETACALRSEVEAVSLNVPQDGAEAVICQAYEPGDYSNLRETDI
Procedure: Isometric contraction assays were performed using Male Wistar rats, aged 2.5-3 months euthanized as described above. The thoracic aorta (tissue enriched in functional α1D adrenergic receptors) was removed, free from adjacent connective and adipose tissues cut in 3 mm segments. […] The aort segments were then subjected to a preload of 20 mN per 60 minutes. After recovery of tissues maintained for 1 hour at rest, it was performed a contraction induced by phenylephrine (PE) 1 μM (α1 adrenergic receptors selective agonist). In this plateau contraction, in order to promote endothelium-dependent relaxation resulting from the activation of the enzyme endothelial nitric oxide synthase (eNOS) and subsequent release of nitric oxide (NO), acetylcholine 1 μM was added. Rings that relaxed at least 80% were considered to have intact endothelium, were used.
Then the preparation was washed and allowed to stand for 1 hour in order to recover the tissue. Then it was performed cumulative curves to phenylephrine (10^−9 to 10^−5 M) in the presence of propranolol 1 μM (β-adrenoceptor blocker receptors) before and after incubation for 1 hour of the LDT's at 10 or 50 nM. In parallel, a temporal control was performed to rule out any artifacts on the measured contraction, where was added only the vehicle (ultrapure water Milli Q®) instead of the substance to be tested. Strictly following the same protocol as the other tanks wherein it was added the LDT's.
The data were scanned in MacLab 8S system connected to the isometric tension transducer Grass FT-03, which recorded the voltage variation in milinewtons (mN) generated throughout the analysis. The digitized data were then analyzed by Chart 3.4/s software program (MacLab, Inc., USA). In the pharmacological screening process, the initial concentration of the used LDT's was 50 nM, which is considered as cut concentration, i.e., substances that have no effect at this concentration would not investigated in this test. […] The ratio of the EC50 value in these two conditions (with and without LDT) matches the third parameter, called “concentration ratio” (or RC).
log(CR−1)=log [B]−log KB (Equation 1)
Where CR=concentration ratio (EC′50/EC50); [B]=‘B’ antagonist concentration; KB=equilibrium dissociation constant of the antagonist ‘B’.
With this in view, the functional tests of contraction in isolated organ model were performed using these tissues. […] Similarly, targeting to rule out any artifacts on the measured contraction, a time control was performed where only the vehicle was added (ultrapure Mili Q® water) in place of the substance to be tested, strictly following the same protocol as the other vats were added to the LDT's (FIG. 1).

[2] = target: T2, 5-HT1A receptors (Rattus norvegicus, UniProt P19327); assay: Binding of [3H]p-MPPF with GTP to 5-HT1A receptors; intrinsic activity (Ki low/Ki high); details: for Ki: antagonist radioligand [3H] p-MPPF in the presence of GTP, read-out: Ki low; for Ki low/Ki high: estimate of intrinsic activity; for pharmacological classification: from Ki low/Ki high; for Ki value ratios for low and high affinity receptor states: in words
T2 construct: Intrinsic Activity at Native 5-HT1A Receptors; from tissue; host or cells: rat hippocampus membranes
T2 sequence (P19327 1-422): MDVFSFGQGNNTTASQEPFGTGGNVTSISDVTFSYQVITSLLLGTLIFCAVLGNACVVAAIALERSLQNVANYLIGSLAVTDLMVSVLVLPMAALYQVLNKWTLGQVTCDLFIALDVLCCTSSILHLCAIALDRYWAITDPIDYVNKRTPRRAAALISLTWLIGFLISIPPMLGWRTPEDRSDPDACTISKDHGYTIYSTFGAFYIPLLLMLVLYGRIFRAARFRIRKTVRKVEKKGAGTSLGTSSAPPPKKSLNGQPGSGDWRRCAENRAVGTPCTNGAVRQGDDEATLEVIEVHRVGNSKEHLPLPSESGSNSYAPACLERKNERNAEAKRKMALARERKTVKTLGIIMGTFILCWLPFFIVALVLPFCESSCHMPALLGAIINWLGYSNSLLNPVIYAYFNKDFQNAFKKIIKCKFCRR
Procedure: Membrane preparations of rat hippocampus according to previously described by HALL et al (1985) and PEROUTKA (1986) were performed. The homogenization and centrifugation steps were performed identically to that described above for receptors α2A and 5-HT2A receptors.
The binding assays for the 5-HT1A receptors were performed as described previously in the literature and previously standardized in the laboratory through saturation experiments. […] (solvent for dilution of LDT's) for the determination of total binding, or 50 μL non-radioative serotonin at 10 μM to determine the non-specific binding (final volume of 500 μL). Assays were performed in triplicate. […] Assays were performed in triplicate.
After the incubation period, the reaction was stopped by adding 4 ml of ice-cold solution containing 5 mM Tris (pH 7.4), followed by vacuum filtration on glass fiber filter (GMF 3, Filtrak®) previously soaked with solution 0.5% polyethylenoimine. The filters were washed three times with 4 mL of ice-cold solution containing 5 mM Tris (pH 7.4) under vacuum to remove all free radioligand. Then the filters were dried and placed in vials containing 5 ml scintillation fluid (composition: 4% PPO, 0.1% POPOP w/p in toluene). The radioactivity retained on the filters was then determined in a liquid scintillation counter (Packard Tri-Carb 1600 TR). […] For these receptors were also determined the […] and Ki parameters.
The GTP presence displaces the GPCR to a state of low affinity (Lahti et al, 1992). The intrinsic activity of a substance can be estimated using GPCR agonist or antagonist radioligand appropriate to define the affinity of the substance in the state of high and low affinity receptor, respectively.

[3] = target: muscarinic receptors; format: binding, rat; details: Table 14; for Ki: Cheng-Prusoff
[4] = Table 2, 50 nM (62-69) or 10 nM (70, 39)
[5] = Table 2, 50 nM (62-69) or 10 nM (70, 39), read-out: KB
[6] = Table 2, phenylephrine curve in presence of LTD 50 nM (62-69)
[7] = KB (nM), Table 1, test substance at 50 nM (a), 10 nM (b) or 2 nM (c)
[8] = log KB ± EPM (M), Table 1, test substance at 50 nM (a), 10 nM (b) or 2 nM (c)
[9] = Table 2, phenylephrine curve in presence of LTD 10 nM (70 and 39)

SMILES | CR ([1]; Table 2, LTD 50 nM (62-69)) | log KB ± EPM (M) [1, 4] | Kb [1, 5] [nM] | log CE50 ± EPM (M) LDT [1, 6] [M] | -log 1050 (M) [3] [M] | Ki [3] [nM] | Kb [1, 7] [nM] | Kb [1, 8] [nM] | also measured
CCCN1CCN(c2ccccc2OC)CC1 [LDT 63] | 3.1 | −7.59 ± 0.12b M | 31.5 | −6.80 ± 0.18 |  |  |  |  | 
CCCCCCCN1CCN(c2ccccc2OC)CC1 [LDT 67] | 29.5 | −8.74 ± 0.08a M | 1.82 | −5.46 ± 0.08 | 4.2 ± 0.02 | 21000 |  |  | Ki ([2]; Table 9): 6.7 nM; Ki low/Ki high ([2]; Table 9): 0.37
COc1cccc(CCN2CCN(c3ccccc3OC)CC2)c1 [LDT 3] |  |  |  |  | 4.26 ± 0.07 | 56700 | 1.78 |  | CR ± EPM ([1]; 50 nM): 29.1 ± 1.8; pharmacological classification ([2]; Table 13): antagonist; Ki value ratios for low and high affinity receptor states [2]: close to the unity
COc1ccc(CCN2CCN(c3ccccc3OC)CC2)cc1OC [LDT 5] |  |  |  |  | 3.97 ± 0.06 | 108000 | 0.57 | 0.589 | CR ± EPM ([1]; 10 nM): 18.5 ± 2.5; pharmacological classification ([2]; Table 13): antagontist
CCOc1ccccc1N1CCN(CC)CC1 [LDT 69] | 6.9 | −8.06 ± 0.08 M | 8.71 | −5.87 ± 0.07 |  |  |  |  | 
CCCCCCN1CCN(c2ccccc2OC)CC1 [LDT 66] | 32 | −8.78 ± 0.06a M | 1.66 | −5.29 ± 0.07 | 3.8 ± 0.08 | 54200 |  |  | Ki ([2]; Table 9): 9 nM; Ki low/Ki high ([2]; Table 9): 1.80
CCOc1ccccc1N1CCN(CCc2ccc3c(c2)OCO3)CC1 [LDT 8] |  |  |  |  | 4.48 ± 0.07 | 33900 | 0.16 | 0.166 | CR ± EPM ([1]; 10 nM): 62.5 ± 15.5; pharmacological classification ([2]; Table 13): partial antagonist; Ki value ratios for low and high affinity receptor states [2]: close to the unity; Ki ([2]; Table 13): 0.62 nM
CCCCCN1CCN(c2ccccc2OC)CC1 [LDT 65] | 7.0 |  |  | −5.89 ± 0.05 | 3.3 ± 0.08 | 172000 |  |  | Kb ([1]; KB (nM), Table 2, 50 nM (62-69) or 10 nM (70, 39)): 8.3 nM; Ki low/Ki high ([2]; Table 9): 1.18
CCN1CCN(c2ccccc2)CC1 [LDT 39] |  | −6.85 ± 0.08a M | 141 |  |  |  |  |  | CR ([1]; Table 2, LTD 10 nM (70 and 39)): 76.7; log CE50 ± EPM (M) LDT [1, 9]: −4.91 ± 0.05 M
CCCCCCCCN1CCN(c2ccccc2OC)CC1 [LDT 68] | 12.8 | −8.36 ± 0.05 M | 4.36 | −5.81 ± 0.06 | 4.5 ± 0.05 | 10800 |  |  | Ki ([2]; Table 9): 3.1 nM; Ki low/Ki high ([2]; Table 9): 0.34
CCOc1ccccc1N1CCN(CCc2ccc(OC)c(OC)c2)CC1 [LDT 245] |  |  |  |  |  |  | 1.16 | 1.17 | 
COc1ccccc1N1CCN(CCc2ccccc2)CC1 [LDT 2] |  |  |  |  |  |  | 2.15 | 3.09 | CR ± EPM ([1]; 50 nM): 24.3 ± 8.7
CCN1CCN(c2ccccc2OC)CC1 [LDT 62] | 7 | −8.08 ± 0.02 M | 8.3 | −6.01 ± 0.06 |  |  |  |  | 
CCN1CCN(c2ccccc2O)CC1 [LDT 70] |  | −7.07 ± 0.08a M | 85.1 |  |  |  |  |  | CR ([1]; Table 2, LTD 10 nM (70 and 39)): 123.6; log CE50 ± EPM (M) LDT [1, 9]: −4.86 ± 0.09 M
CCCCN1CCN(c2ccccc2OC)CC1 [LDT 64] | 6.4 | −7.93 ± 0.13 M | 11.7 | −6.18 ± 0.08 |  |  |  |  | 
COc1ccc(CCN2CCN(c3ccccc3OC)CC2)cc1 [LDT 4] |  |  |  |  |  |  | 3.14 | 3.39 | CR ± EPM ([1]; 50 nM): 16.9 ± 5.5
